In article PMC8746705, “Comparison of Experimental Strategies to Study L-Type Amino Acid Transporter 1 (LAT1) Utilization by Ligands” (Molecules, 2021):

Assays:
[1] = tested on: brain amino acids L-Leu, L-Trp, L-Tyr and L-Tyr metabolites; experiment: Brain amino acid homeostasis after i.p. dose to mice; assay type: in vivo; settings: mouse brain, single i.p. dose 25 µmol/kg; for Brain 3,4-dihydroxyphenylacetic acid levels: compound 2: 2 and 4 h compared to first time point (10 min)
Experimental: Adult male mice weighing 25 ± 5 g were supplied by Envigo (Venray, Netherlands). Mice were housed in stainless steel cages on a 12 h light (07:00–19:00) and 12 h dark (19:00–07:00) cycle at an ambient temperature of 22 ± 1 °C with a relative humidity of 50–60%. All experiments were carried out during the light phase. Tap water and food pellets (Lactamin R36; Lactamin AB, Södertälje, Sweden) were available ad libitum. A dose of 25 µmol/kg of compound 1, 2, or 8–11 was given as a bolus injection (i.p.) to mice. The mice were decapitated at selected time points between (10–360 min) and brain tissues were collected for sample preparation to be analyzed by liquid chromatography-mass spectrometric (LC-MS/MS) analysis.
Brain samples were prepared similarly as described above by homogenizing the pre-weigh tissues with ultrapure water (1:3). Subsequently, 100 µL of the homogenates was taken, and the proteins were precipitated with 300 µL of ACN containing the internal standard (labetalol).
Samples were vortexed and centrifuged at 10,000× g at 4 °C for 10 min. 200 µL of supernatant was mixed with 100 µL of ultrapure water and injected to LC-MS/MS equipment described above. The amounts of three known LAT1-utilizing amino acids, L-Leu, L-Tyr, and L-Trp, and two L-Tyr metabolites, namely p-hydroxyphenylacetate and 3,4-dihydroxyphenylacetic acid, were quantified with a method described earlier. […] Data were acquired using the Agilent MassHunter Workstation Acquisition software (Data Acquisition for Triple Quadrupole Mass Spectrometer, version B.03.01) and processed and analyzed with Quantitative Analysis (B.04.00) software. The lower limit of quantification (LLOQ) for the amino acids in tissue samples was 0.1 nM for L-Leu, L-Tyr, and L-Trp and 1 nM for p-hydroxyphenylacetate and 3,4-dihydroxyphenylacetic acid. […] The concentrations of the amino acids and their metabolites were calculated from the standard curve that was prepared by spiking known amounts of compounds to ACN including the selected internal standard.

[2] = Stability / bioconversion of prodrugs to parent drugs (biological media, 0.1 M NaOH cell lysing); assay type: in vitro ADME; settings: cell lysate samples for LC-MS/MS (Table S1 footnote)
Excerpt: LAT1-utilizing prodrugs 1–15 (Figure 1) were selected for this study based on their ability to utilize LAT1 expressed in cells used in our previous studies. Therefore, the syntheses of these compounds are not described herein as they have been reported earlier. These compounds include prodrugs of an investigational immunosuppressive agent, perforin inhibitor (1), non-steroidal anti-inflammatory drugs (NSAIDs), ketoprofen (2–4, 14), salicylic acid (8), flurbiprofen (9 and 12), ibuprofen (10 and 13) and naproxen (11 and 15), as well as the polyphenolic antioxidant, ferulic acid (5–7). […] In addition, all NSAID prodrugs (compounds 2–4, 9–15) were prepared from their pure S-enantiomers. Prodrugs of ferulic acid (compounds 5–7) were mixtures of E- and […], which were interconvertible over time. […] Therefore, both prodrug and the released parent drug proportions were quantified and taken into account when calculating concentrations transported into the cells.
1. LC-MS/MS ionization parameters of compounds 1-15
Table S1. Ionization parameters for the LC-MS/MS methods of the studied compounds.
Precursor Product Fragmentor Collision Flow rate Gradient LLOQ
Compound ion ion(s) Voltage (V) Energy (mL/min) (A:B) (nM) […]
perforin inhibitor 1a and therefore, their transitions with a positive ion mode are reported only as KPF or as a prodrug and parent drug in parentheses. […]
drugs (ferulic acid (FA), flurbiprofen (FLB), ibuprofen (IBU), and naproxen (NPX), respectively), whose transitions with a negative ion mode are reported below the studied LAT1 -utilizing compounds i n parentheses.

LAT1 [3] = molecular target: T1, LAT1 (Mus musculus, UniProt Q9Z127); experiment: Cellular uptake of L-leucine after pre-incubation of BV2 cells with the compounds; assay type: cell-based; settings: 100 µM (L-glutamine 2 mM) pre-incubated 10 min or 3 h, L-leucine 1–400 µM, 5 min
Experimental: The ability of compounds 1–15 to affect the uptake of a known LAT1 substrate L-leucine was evaluated by pre-incubating the BV2 cells at 37 °C for 10 min or 3 h with uptake buffer pH 7.4 (250 μL) containing 100 µM of compounds 1–15 or thyroxin (T4), or known nuclear receptor inducible compounds, phenobarbital (constitutive androstane receptor, CAR), and dexamethasone (pregnane X receptor, PXR) as controls. […] After incubation, the reaction was stopped by adding 250 µL of ice-cold HBSS, and the cells were washed two times with ice-cold HBSS. The cells were then lysed with 500 μL of 0.1 M NaOH (60 min) and the lysate was mixed with 3.5 mL of Emulsifier safe cocktail (Ultima Gold, PerkinElmer, Waltham, MA, USA). The radioactivity in the cells was measured by liquid scintillation counting (MicroBeta^2 counter, PerkinElmer Waltham, MA, USA). The results were multiplied by the amount of un-labeled proportion of L-leucine in each sample.

LAT1 [4] = molecular target: T1, LAT1; set-up: method as in earlier work; settings: BV2 cells; probe [14C]-L-Leu; mean ± SD; published earlier; ref [31] or [33]; read-out: IC50 of [14C]-L-Leu uptake; cited from earlier work

T1 sequence (Q9Z127 whole entry): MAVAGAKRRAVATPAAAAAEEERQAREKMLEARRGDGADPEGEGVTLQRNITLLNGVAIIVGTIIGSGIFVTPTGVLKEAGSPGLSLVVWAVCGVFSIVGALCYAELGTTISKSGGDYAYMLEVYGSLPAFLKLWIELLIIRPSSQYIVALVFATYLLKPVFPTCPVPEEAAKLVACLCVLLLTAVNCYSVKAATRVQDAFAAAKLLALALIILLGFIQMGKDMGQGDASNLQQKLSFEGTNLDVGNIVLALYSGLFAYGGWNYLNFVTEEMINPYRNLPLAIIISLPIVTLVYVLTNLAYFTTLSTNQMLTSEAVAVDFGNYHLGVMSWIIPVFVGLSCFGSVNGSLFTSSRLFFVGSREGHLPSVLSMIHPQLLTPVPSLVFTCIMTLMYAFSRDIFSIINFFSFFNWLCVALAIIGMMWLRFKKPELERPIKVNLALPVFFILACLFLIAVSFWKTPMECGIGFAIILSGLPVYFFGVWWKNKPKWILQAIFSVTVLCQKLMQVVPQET
T1 sequence (P10852 whole entry partner): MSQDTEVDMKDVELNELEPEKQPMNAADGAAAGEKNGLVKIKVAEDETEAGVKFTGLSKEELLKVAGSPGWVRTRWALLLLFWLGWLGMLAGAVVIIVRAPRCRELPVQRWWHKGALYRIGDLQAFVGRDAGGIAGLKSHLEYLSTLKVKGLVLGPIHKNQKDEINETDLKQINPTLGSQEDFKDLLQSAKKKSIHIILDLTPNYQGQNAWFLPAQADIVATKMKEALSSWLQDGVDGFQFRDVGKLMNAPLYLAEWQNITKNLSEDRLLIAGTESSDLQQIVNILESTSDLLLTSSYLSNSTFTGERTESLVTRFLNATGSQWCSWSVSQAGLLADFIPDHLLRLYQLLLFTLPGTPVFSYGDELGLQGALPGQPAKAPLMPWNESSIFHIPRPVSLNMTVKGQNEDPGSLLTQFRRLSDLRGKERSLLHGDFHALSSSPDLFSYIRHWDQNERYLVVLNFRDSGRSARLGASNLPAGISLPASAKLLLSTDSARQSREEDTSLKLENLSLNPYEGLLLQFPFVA

Which Brain p-hydroxyphenylacetate levels ([1]; after 30 min of the bolus injection compared to other time points) does the source give for NC(Cc1cccc(C(=O)Oc2ccc(-c3ccc(-c4ccc5c(c4)COC5=O)s3)cc2)c1)C(=O)O (stereo not drawn) [Compound 1] here?
The Brain p-hydroxyphenylacetate levels was “significantly lower”.

What about the “Conversion to parent drug in the analysed samples” value (from here on “Conversion to parent drug”) [2] of the same compound?
Its value is “partly”.

Which “Effect on cellular uptake of L-Leu after pre-incubation” value (LAT1 [3]) does the source give for C[C@H](C(=O)Nc1cccc(C[C@H](N)C(=O)O)c1)c1cccc(C(=O)c2ccccc2)c1 [Compound 2] here?
Its value is “induced the uptake of L-Leu”.

And the “Brain 3,4-dihydroxyphenylacetic acid levels” value [1]?
The value was “significant reduction”.

For C[C@H](C(=O)Oc1cccc(C[C@H](N)C(=O)O)c1)c1cccc(C(=O)c2ccccc2)c1 [Compound 4], which “Conversion to parent drug” value [2] is on record?
Its value is “fully converted into ketoprofen”.

For COc1cc(C=CC(=O)NCc2cccc(CC(N)C(=O)O)c2)ccc1O (stereo not drawn) [Compound 5], which “Effect on cellular uptake of L-Leu after pre-incubation” value (LAT1 [3]) is on record?
The value was “induced the uptake of L-Leu”.

Which “Conversion to parent drug” value [2] does the source give for COc1cc(/C=C/C(=O)Oc2cccc(C[C@H](N)C(=O)O)c2)ccc1O [Compound 7] here?
Its value is “partly converted to their parent”.

What does the source list for N[C@@H](Cc1cccc(NC(=O)c2ccccc2O)c1)C(=O)O [Compound 8]?
Brain 3,4-dihydroxyphenylacetic acid levels [1]: Not detected at all; IC50 (LAT1 [4]): 18.9 ± 1.6 µM

For C[C@H](C(=O)Oc1cccc(C[C@H](N)C(=O)O)c1)c1ccc(-c2ccccc2)c(F)c1 [Compound 12], which “Conversion to parent drug” value [2] is on record?
Its value is “partly converted to their parent”.

What about the IC50 (LAT1 [4]) of the same compound?
The IC50 was 4.2 ± 1.2 µM.

Which “Conversion to parent drug” value [2] does the source give for COc1ccc2cc([C@H](C)C(=O)Oc3cccc(C[C@H](N)C(=O)O)c3)ccc2c1 [Compound 15] here?
The value was “partly converted to their parent”.
